The values that follow come from publication PMC11459959, “Discovery of new acetamide derivatives of 5-indole-1,3,4-oxadiazol-2-thiol as inhibitors of HIV-1 Tat-mediated viral transcription” (Antimicrobial Agents and Chemotherapy, 2024).

What all share (type): cell-based
Assay [1] relates to NRTI-resistant HIV-1 strain 7396. Description: microbe, parasite or virus in culture. The note with it: Human immunodeficiency virus 1, TZM-bl. The procedure:
(§1) Fig 7 (A–C) TZM-bl cells (1 × 10^4 cells/well) cultured in a 96-well plate were treated with fivefold serial dilutions of the indicated compound or ARV for 1 h before infection with the HIV-1NL4-3 or ARV-resistant HIV-1 strains at an MOI of 1, respectively. At 48 h after infection, the EC50 values were determined using an F-Luc activity. The symbols represent the fold-change values of EC50 against each mutant virus relative to the wild-type (WT) virus. (D) PBMCs (5 × 10^4 cells/well) were infected with the HIV-1NL4-3 and PIs-resistant HIV-1 strain at an MOI of 0.1, respectively. Subsequently, the PBMCs were treated with 10-fold serial dilutions of the indicated compounds or PI. At 3 days after infection, the EC50 values on the viral replication were determined using a p24 […] assay kit. (E) The inhibitory kinetics for the WT and ARV-resistant viruses. TZM-bl cells infected with WT or ARV-resistant viruses were cultured upon fivefold serial dilutions of each compound for 2 days and the infectivity was determined using an F-Luc activity.
(§2) The Tzm-bl-derived dual Tat reporter; TZM-bl/Tat/Rluc (bl-DTR) cells were established from TZM-bl cells using two Dox-inducible lentiviral expression cassettes cloned with Flag-tagged Tat86 and the R-Luc gene, as described in our previous study ([11]). TZM-bl, A3.01, J1.1, and J-Lat 6.3 cells as well as the HIV-1 molecular clone pNL4-3, pNL(AD8), ARV-resistant HIV-1 strains, and HIV-1NL43-IRES-eGFP (pBR43IeG-nef^+, gifted by Dr. Frank Kirchhoff) ([52]) were provided by the National Institute of Health HIV Reagent Program (NIH, Bethesda, MD, USA). HeLa (CCL-2) and 293T (CRL-3216) cell lines were purchased from the American Type Culture Collection (ATCC, Manassas, VA, USA). The bl-DTR, TZM-bl, HeLa, and 293T cells were cultured in Dulbecco’s modified Eagle’s medium supplemented with 1% penicillin–streptomycin and 10% (vol/vol) heat-inactivated fetal bovine serum (all from Gibco-BRL, Gaithersburg, MD, USA), and 1 µg/mL of puromycin and 200 µg/mL of zeocin were additionally supplemented for the bl-DTR cells. PBMCs were purchased from AllCells (Alameda, CA, USA) and cultured as previously described ([12]). The information on ARV-resistant HIV-1 strains was described in previous reports as follows: NNRTI-resistant 12241 and 12243 ([53]); NRTI-resistant 7396, 7406, and 7407 ([54]); INSTI-resistant 11847 and 11849 ([55], [56]); and PI-resistant 11800 and 11803 ([57]). Each molecular HIV-1 clone was transfected to 293T cells, as previously described ([58]), to obtain infectious HIV-1 particles. Virus-containing cell culture supernatants were collected 3 days after transfection, and filtered through a 0.45-µm membrane filter (Millipore Sigma, Burlington, MA, USA) to remove cell debris. The viral titration was performed as described previously ([59]) with some minor modifications. In brief, 1 × 10^4 TZM-bl cells seeded in 96-well plates were infected with 200 µL of virus-containing medium diluted serially twofold. The incubation was for 2 days and the experiment was performed in triplicate; the infection time minimized the virus spread ([59]). The titration of the infectious viral particles was performed with a ß-Gal staining assay using the ßeta-Galactosidase Staining Kit (Mirus Bio, Madison, WI, USA) following the manufacturer’s protocols. In brief, the infected cells were washed with phosphate-buffered saline (PBS) and fixed using a Cell Fixative Working solution. The cells were washed with PBS and stained using the Cell Staining Working Solution containing X-gal. The infected blue-colored cells were counted under a microscope (100× magnification). The infectious virus titer was determined as a mean value of blue-colored cells count × dilution factor and used for determining the multiplicity of infection (MOI) in each infection experiment.

Assay [2] deals with NRTI-resistant HIV-1 strain 7407. Nature of the assay: microbe, parasite or virus in culture. The note with it: Human immunodeficiency virus 1, TZM-bl. The procedure: as §1, §2
Assay [3] deals with NRTI-resistant HIV-1 strain 7406. Description: microbe, parasite or virus in culture. The note with it: Human immunodeficiency virus 1, TZM-bl. The procedure: as §1, §2
Assay [4] has as its system HIV-1NL4-3. Nature of the assay: Time-of-addition assay in TZM-bl cells. The note with it: HIV-1NL4-3 MOI 1, 9 and 13 1.5 μM, T-20 1 µM, triptolide 5 nM, ARVs 1 µM, F-Luc at 54 h. The procedure:
Fig 5 (A) Time-of-addition assay. […] Subsequently, the cells were treated with the compounds at the indicated time points (0, 1, 2, 4, 6, 8, 10, 12, 24, 30, 36, 42, and 48 h) after HIV-1 infection. The final concentrations of compounds are described in Materials and Methods. Viral activity according to the timing of drug addition was measured as F-Luc activity at 54 h after infection. The relative activities are represented as the mean ± SD (n = 3) compared with the activity observed 54 h post-infection. The relative time frames associated with each HIV-1 infection step are defined based on the time frame of susceptibility to the drug that blocks that particular infection step. […] At 16 h after infection, the viral reverse transcription (RT) product (viral cDNA) level was determined by quantitative real-time PCR (RT-qPCR) using gag and 18S rRNA primer sets and represented as the mean ± SD (n = 3) normalized against the amount of the 18S rRNA compared with the DMSO control. **P < 0.01 compared with the vehicle (DMSO). (C) An in vitro integrase (IN) assay was performed with 10 µM of the indicated compounds following the manufacturer’s protocol. **P < 0.01 compared with vehicle (DMSO). (D) A3.01 cells were infected with HIV-1 upon treatment with the indicated compounds (5 µM) and ARVs (EFV and DTG) as the experimental controls. At 40 h after infection, cellular chromosomal DNA was purified, and the integrated proviral DNA was detected through nested Alu-PCR amplification.
A time-of-addition assay was performed as previously described ([25]) with minor modifications. […] Reference drug and test compounds were subsequently added at the indicated time (0, 1, 2, 4, 6, 8, 10, 12, 24, 30, 36, 42, and 48 h after infection). Final concentrations were as follows: compounds 9 and 13 (1.5 μM), T-20 (1 µM), Triptolide (5 nM), and ARVs (AZT, EFV, DTG, RAL) (1 µM). The viral activity according to the timing of drug addition was measured using a Bright Glo luciferase assay kit (Promega). Virus activity curves present a % activity relative to the activity observed at 54 h after infection, and the data are presented as the mean ± standard deviation (SD) (n = 3). The relative time frame associated with each HIV-1 infection step was defined based on the sensitivity to each drug that blocks a particular infection step.

Assay [5] concerns HIV-1NL4-3. Description: HIV-1 infectivity in TZM-bl cells (F-Luc). The note with it: Human immunodeficiency virus 1, TZM-bl, 48 h, Table S1, WT virus, TZM-bl, fivefold serial dilutions, MOI 1, 48 h; read-out: EC50.
Method: The TZM-bl cells (also referred to as JC53BL-13) expressing human CD4, CXCR4, and CCR5 carrying the F-Luc and lacZ genes downstream of the HIV-1 LTR promoter ([60]) were used to determine the inhibitory effect of the compounds on HIV-1 infection, as previously described ([11], [12], [61]). In brief, 1 × 10^4 cells were cultured in 96-well plates for 24 h and subsequently treated with compounds at the indicated concentrations. Without replacement of the culture medium, the cells were subsequently infected with the HIV-1NL4-3 wild-type or ARV-resistant HIV-1 strains at an MOI of 1 to determine the exact inhibitory effect of compounds on a single-round infection. After 48 h, the inhibitory effect of the compounds was determined using a Bright Glo luciferase assay kit (Promega) or β-Galactosidase Enzyme Assay kit (Promega). The infectivity data were presented as a percentage relative to the dimethyl sulfoxide (DMSO) control (vehicle). Cell viability was determined using the resazurin-based PrestoBlue Cell Viability Reagent (Thermo Fisher Scientific, Waltham, MA, USA) following the manufacturer’s instructions.
Assay [6] relates to HIV-1NL4-3. Description: HIV-1 replication in PBMCs (p24 […]). The note with it: Table S1, WT virus, 10-fold serial dilution. The procedure: The p24 level from the cell supernatant was subsequently determined using a p24 […] kit (PerkinElmer). In parallel, the cell viability was determined without viral infection because of the viral cytopathic effect. […] In parallel, cell viability was determined. The data (A and B) are presented as the mean ± SD (n = 3). (C) PBMCs (4 × 10^5) infected with HIV-AD8 at an MOI of 0.1 were treated with 1.5 µM of the compounds or ARVs for 3 days. The levels of p24 and cell viability were subsequently determined. (D) J1.1 cells were cultured with the compounds ([…]) under 50 ng/mL phorbol myristate acetate (PMA) treatment for 2 days. The level of p24 was subsequently determined. (E) J-Lat 6.3 cells were treated with the compounds (1.5 µM) under 1 µg/mL of PMA for 2 days. The GFP-positive cell population was analyzed using flow cytometry. The data are represented as a value relative to the DMSO-treated vehicle (D) and a percent of the GFP^+ cell population (E) as mean ± SD (n = 3).
The inhibitory effects of the compounds on viral replication were determined with some minor modifications, as previously described ([12], [62]). […] PBMCs (4 × 10^5) pre-activated with PHA-M for 3 days were washed with fresh media to remove excess PHA-M and subsequently infected with HIV-1NL4-3 or HIV-1AD8 or PIs-resistant HIV-1 strains as A3.01 infection. After infection, the infectious media were replaced with fresh media supplemented with international 10 units (IU)/mL of IL-2 and the indicated compounds. At 72 h after infection, the inhibitory effect of the compounds on viral replication was determined by measuring the p24 amount, an HIV capsid protein, using an HIV-1 p24 […] kit (PerkinElmer, Waltham, MA, USA). Cell viability was determined as described above. The inhibitory effects on provirus reversing in J1.1 and J-Lat 6.3 cells were determined as previously described ([12], [41], [63]) with some minor modifications. Briefly, 5 × 10^4 persistently HIV-1-infected J1.1 or J-Lat 6.3 cells were cultured in either the presence or absence of the compounds at a final concentration of 1.5 µM and treated with PMA (50 ng/mL for J1.1 cells, 1 µg/mL for J-Lat 6.3 cells). Two days after treatment, the levels of viral production were determined using p24 […] for J1.1 cells and flow cytometry analysis for GFP-expressing J-Lat 6.3 cells.

Assay [7] deals with PI-resistant HIV-1 strain 11803. Nature of the assay: microbe, parasite or virus in culture.
From the text: as §2
(§3) The inhibitory effects of the compounds on viral replication were determined with some minor modifications, as previously described ([12], [62]). […] PBMCs (4 × 10^5) pre-activated with PHA-M for 3 days were washed with fresh media to remove excess PHA-M and subsequently infected with HIV-1NL4-3 or HIV-1AD8 or PIs-resistant HIV-1 strains as A3.01 infection. After infection, the infectious media were replaced with fresh media supplemented with international 10 units (IU)/mL of IL-2 and the indicated compounds. At 72 h after infection, the inhibitory effect of the compounds on viral replication was determined by measuring the p24 amount, an HIV capsid protein, using an HIV-1 p24 […] kit (PerkinElmer, Waltham, MA, USA). Cell viability was determined as described above. The inhibitory effects on provirus reversing in J1.1 and J-Lat 6.3 cells were determined as previously described ([12], [41], [63]) with some minor modifications.

Assay [8] deals with PI-resistant HIV-1 strain 11800. Description: microbe, parasite or virus in culture.
From the text: as §2, §3

The mark [9] stands for this setting: PI-resistant 11803, PBMCs, 10-fold serial dilution, read-out: EC50.
Where [10] appears, read: PI-resistant 11800, PBMCs, 10-fold serial dilution, read-out: EC50.
Setting [11] is: Human immunodeficiency virus 1, PBMC.

Like-named read-outs stand apart in the source and are kept apart here.

For orientation: EC50 means the concentration giving half of the maximal effect. Consider `Cc1cn([C@H]2C[C@H](N=[N+]=[N-])[C@@H](CO)O2)c(=O)[nH]c1=O` [AZT, zidovudine], for which the EC50 in assay [1] was 16.4 ± 1.37 µM; in assay [2] it was above 100 µM; in assay [3], 73.12 ± 0.43 µM; in assay [5], 0.11 ± 0.01 µM. Besides, the “time of administration after infection at which effectiveness began to decrease / was lost” value in assay [4] turned out to be 6 h.
On to `Cc1c(O)cccc1C(=O)N[C@@H](CSc1ccccc1)[C@H](O)CN1C[C@H]2CCCC[C@H]2C[C@H]1C(=O)NC(C)(C)C` [NFV, nelfiravir], for which the EC50 was below 0.001 µM in assay [6] (read-out: EC50), 1.64 ± 0.22 µM in assay [7] (setting [9]) and 0.42 ± 0.02 µM in assay [8] (setting [10]).
As to `CC(C)CN(C[C@@H](O)[C@H](Cc1ccccc1)NC(=O)O[C@H]1CO[C@H]2OCC[C@H]21)S(=O)(=O)c1ccc(N)cc1` [DRV, darunavir], the EC50 in assay [6] (setting [11]) is below 0.001 µM; in assay [7] (setting [11]), 0.03 ± 0.01 µM; in assay [8] (setting [11]), 0.15 ± 0.02 µM.
`CC(C)(C)NC(=O)[C@@H]1C[C@@H]2CCCC[C@@H]2CN1C[C@@H](O)[C@H](Cc1ccccc1)NC(=O)[C@H](CC(N)=O)NC(=O)c1ccc2ccccc2n1` [SQV, sequinavir]: the EC50 in assay [6] (read-out: EC50) amounted to 0.00824 ± 0.00015 µM; in assay [7] (setting [9]) it was 1.24 ± 0.13 µM; in assay [8] (setting [10]) it was 0.01 µM.
